Measurements reported in patent US20230000813A1, “COMPOUND FOR THE TREATMENT OF BOVINE OR SWINE RESPIRATORY DISEASE” (Intervet Inc., priority 2016, published 2023).
Converted amounts (≈) assume the structure as drawn. “And” between values parts separate entries of the source, which are not always exact repeats. Equal entries are not always repeated. Where two headings read alike, the source gives them in different places.

Columns and labels:
[1] = system: naturally occurring bovine respiratory disease (BRD); assay: Treatment of naturally occurring bovine respiratory disease under U.S. feedlot conditions (Example 11); type: in vivo, weaned beef cattle calves
Excerpt: The effectiveness and safety of compound 329 for the treatment of naturally occurring bovine respiratory disease (BRD) under typical U.S. feedlot conditions when administered subcutaneously was investigated. The therapeutic efficacy of the two antibacterials was compared to a negative control group (sterile saline) and a positive control group (Nuflor® Injectable Solution).
Weaned beef cattle calves (crossbreds of Angus, Charolais and Limousin) were enrolled in the study and were allocated to groups of 20 animals per treatment group. Calves were enrolled in the study with body weights that ranged from 123 to 262 kg.
The bovine respiratory disease observed in this 10-day natural infection study was moderate to severe across the treatment groups and typical of that observed in commercial feed yards in the U.S.
Animals were dosed subcutaneously once on the day of enrollment (Day 0) with compound 329 or the control groups. Compound 329 was dosed at 10 mg/kg body weight. Nuflor® was dosed at 40 mg/kg body weight. Sterile saline was dosed at 2 mL/15 kg body weight.

[2] = Plasma and tissue concentrations in infected calves (Example 10); type: in vivo, cattle calves; settings: individual animals and mean; for Concentration, Plasma 0 h: predose
[3] = system: Pasteurella multocida PM 12080 (IV102277-0093, BRD field isolate); assay: MIC, broth-microdilution (CLSI VET01-A4); type: cell-based
Procedure, shortened: (§1)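 Compounds were tested in microdilution trays as twofold serial dilutions. The MIC was taken as the lowest concentration with no turbidity visible to the unaided eye, and results were interpreted per CLSI VET01-S3.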

[4] = system: Mannheimia haemolytica MH 6357 (M7/2, reference strain, cattle infection strain); assay: MIC, broth-microdilution (CLSI VET01-A4); type: cell-based
Procedure, shortened: as §1

[5] = system: Mannheimia haemolytica MH 12587 (1071, BRD field isolate, macrolide-resistance: erm+, E+); assay: MIC, broth-microdilution (CLSI VET01-A4); type: cell-based
Procedure, shortened: as §1

[6] = system: Mannheimia haemolytica MH 6374 (ATCC 33396, reference strain); assay: MIC, broth-microdilution (CLSI VET01-A4); type: cell-based
Procedure, shortened: as §1

[7] = system: Pasteurella multocida PM 6391 (ATCC 43137, reference strain); assay: MIC, broth-microdilution (CLSI VET01-A4); type: cell-based
Procedure, shortened: as §1

[8] = D 0 to D 10, 20 calves per group, C. 329 10 mg/kg, Nuflor 40 mg/kg SC once
[9] = natural BRD, 20 calves per group, SC once on Day 0: C. 329 10 mg/kg, Nuflor 40 mg/kg
[10] = natural BRD, calves removed before D 10 included, C. 329 10 mg/kg, Nuflor 40 mg/kg SC once
[11] = SC single 5 mg/kg (35% Cavitron), listed as C. 239, 5 mg/kg
[12] = SC single 10 mg/kg (C 231 in 10% Poloxamer 188; C 329 in 35% Cavitron), 10 mg/kg

Structure (SMILES): CC(C)(N)C(NC(=O)c1ccc(C#Cc2ccc(CNC3CC3)cc2)cc1)C(=O)NO (centres unmarked) [C. 329]
- Efficacy in a field like setting, naturally occurring BRD ([1]; 10 mg/kg SC once, compared to saline and Nuflor, conclusion in words): demonstrated
- Mortalities during the study ([1]; 10-day natural BRD study, C. 329 10 mg/kg, Nuflor 40 mg/kg SC once): 5%
- Removals from the study, Percentage [1, 8]: 5%
- Removals from the study, Total [1, 8]: 1
- Removals from the study, D 0 [1, 9]: 0
- Removals from the study, D 1 [1, 9]: 0
- Removals from the study, D 2 [1, 9]: 0
- Removals from the study, D 3 [1, 9]: 0
- Removals from the study, D 4 [1, 9]: 0
- Removals from the study, D 5 [1, 9]: 0
- Removals from the study, D 6 [1, 9]: 0
- Removals from the study, D 7 [1, 9]: 0
- Removals from the study, D 8 [1, 9]: 0
- Removals from the study, D 9 [1, 9]: 1
- Removals from the study, D 10 [1, 9]: 0
- Average Body weight on D 0 ([1]; natural BRD, day of enrollment, C. 329 10 mg/kg, Nuflor 40 mg/kg SC once): 401.2 lb
- Average Body weight on last day in study [1, 10]: 406.3 lb
- Average daily body weight gain [1, 10]: 0.5 lb
- daily body weight gains over the study period ([1]; natural BRD, in words): positive daily body weight gains
- Concentration, Plasma 0.5 h [2, 11]: 1140 ng/mL and 830 ng/mL and 945 ng/mL
- Concentration, Plasma 2 h [2, 11]: 327 ng/mL and 326 ng/mL and 221 ng/mL
- Concentration, Plasma 4 h [2, 11]: 146 ng/mL and 210 ng/mL and 130 ng/mL
- Concentration, Plasma 6 h [2, 11]: 110 ng/mL and 156 ng/mL and 78.7 ng/mL
- Concentration, Plasma 24 h [2, 11]: 32.2 ng/mL and 35.1 ng/mL and 22.8 ng/mL
- Concentration, Plasma 48 h [2, 11]: 16.1 ng/mL and 18.2 ng/mL and 12.8 ng/mL
- Concentration, Tissue (48 h) ELF [2, 11]: 91.8 ng/mL and 214 ng/mL and 324 ng/mL
- Concentration, Tissue (48 h) Kidney [2, 11]: 8890 ng/mL and 3990 ng/mL and 4940 ng/mL
- Concentration, Tissue (48 h) Liver [2, 11]: 2060 ng/mL and 1550 ng/mL and 1740 ng/mL
- Concentration, Tissue (48 h) Lung [2, 11]: 1560 ng/mL and 1320 ng/mL and 1360 ng/mL
- Concentration, Tissue (48 h) Muscle [2, 11]: 53.3 ng/mL and 45.7 ng/mL and 54.4 ng/mL
- Concentration, Plasma 0.5 h [2, 12]: 1160 ng/mL and 1610 ng/mL and 1400 ng/mL
- Concentration, Plasma 2 h [2, 12]: 476 ng/mL and 439 ng/mL and 550 ng/mL
- Concentration, Plasma 4 h [2, 12]: 310 ng/mL and 267 ng/mL and 282 ng/mL
- Concentration, Plasma 6 h [2, 12]: 210 ng/mL and 172 ng/mL and 174 ng/mL
- Concentration, Plasma 24 h [2, 12]: 69.1 ng/mL and 42.9 ng/mL and 57.5 ng/mL
- Concentration, Plasma 48 h [2, 12]: 49.3 ng/mL and 38.5 ng/mL and 32.4 ng/mL
- Concentration, Tissue (48 h) ELF [2, 12]: 1090 ng/mL and 372 ng/mL and 250 ng/mL
- Concentration, Tissue (48 h) Kidney [2, 12]: 6570 ng/mL and 20800 ng/mL and 4620 ng/mL
- Concentration, Tissue (48 h) Liver [2, 12]: 3930 ng/mL and 3650 ng/mL and 2730 ng/mL
- Concentration, Tissue (48 h) Lung [2, 12]: 2780 ng/mL and 3370 ng/mL and 2790 ng/mL
- Concentration, Tissue (48 h) Muscle [2, 12]: 75.3 ng/mL and 68.5 ng/mL and 85.9 ng/mL
- Concentration, Plasma 0 h ([2]; SC single 5 mg/kg (35% Cavitron)): BLQ
- Concentration, Plasma 0 h ([2]; SC single 10 mg/kg (C 231 in 10% Poloxamer 188; C 329 in 35% Cavitron)): BLQ
- MIC PM 12080 ([3]; Pasteurella multocida PM 12080): <=0.1 μM
- MIC ([3]; strain PM 12080): 0.032 µg/mL (≈ 0.0761 µM)
- MIC ([4]; Mannheimia haemolytica MH 6357, read-out: MIC MH 6357): 1.6 µM
- MIC ([4]; strain MH 6357): 0.5 µg/mL
- MIC MH 12587 ([5]; Mannheimia haemolytica MH 12587, macrolide-resistant): 1.6 µM (≈ 0.673 µg/mL)
- MIC ([5]; strain MH 12587, macrolide-resistant): 0.5 µg/mL (≈ 1.19 µM)
- MIC ([6]; Mannheimia haemolytica MH 6374, read-out: MIC MH 6374): 0.8 µM
- MIC ([6]; strain MH 6374): 0.25 µg/mL
- MIC PM 6391 ([7]; Pasteurella multocida PM 6391): <=0.1 μM
- MIC ([7]; strain PM 6391): 0.063 µg/mL (≈ 0.15 µM)
